Measurements from PubChem BioAssay (NCI).
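1) Cells in 96-well plates. 2) Compound, 48 h, 5 concentrations. 3) Linear interpolation between surrounding doses. 4) Unreached endpoint = highest concentration. GI50 marks 50% less growth. At the TGI there is no net growth.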 *1 amine or outer side, *2 acyl side, *3 side chain or, on linkers, in order; H or OH if unused. Where a SMILES comes first, the peptide text is derived from it. Bridges are numbered along the chain shown (N, C = ends). Roman numbers before positions name the chains, in order. [ ]: non-standard residue; d: D form. Actinocin(9to1) = Cc1c2oc3c(C)ccc(C(=O)[*:1])c3nc-2c(C(=O)[*:2])c(N)c1=O; NMeV = CN[CH](C(=O)O)C(C)C; Sar = CNCC(=O)O

Key:
Assay in all cases: NCI-60 cell line screen, 48 h
SK-MEL-2 melanoma = tested on: SK-MEL-2 melanoma
KM12 colon = tested on: KM12 colon
TK-10 renal = tested on: TK-10 renal
HCT-116 colon = tested on: HCT-116 colon
UO-31 renal = tested on: UO-31 renal
U251 CNS = tested on: U251 CNS
SF-295 CNS = tested on: SF-295 CNS
SF-268 CNS = tested on: SF-268 CNS
MALME-3M melanoma = tested on: MALME-3M melanoma
HL-60(TB) leukemia = tested on: HL-60(TB) leukemia

| SMILES | TGI (SK-MEL-2 melanoma) | TGI (KM12 colon) | TGI (TK-10 renal) | TGI (HCT-116 colon) | TGI (UO-31 renal) | TGI (U251 CNS) | TGI (SF-295 CNS) | TGI (SF-268 CNS) | TGI (MALME-3M melanoma) | TGI (HL-60(TB) leukemia) | GI50 (SK-MEL-2 melanoma) | GI50 (KM12 colon) | GI50 (TK-10 renal) | GI50 (HCT-116 colon) | GI50 (UO-31 renal) | GI50 (U251 CNS) | GI50 (SF-295 CNS) | GI50 (SF-268 CNS) | GI50 (MALME-3M melanoma) | GI50 (HL-60(TB) leukemia) |
| --- | --- | --- | --- | --- | --- | --- | --- | --- | --- | --- | --- | --- | --- | --- | --- | --- | --- | --- | --- | --- |
| C=C1CN=C(Nc2ccc(F)cc2F)S1 | > 100 µM | > 100 µM | > 100 µM | > 100 µM | > 100 µM | > 100 µM | > 100 µM | > 100 µM | > 100 µM | > 100 µM | – | – | – | – | – | – | – | – | – | – |
| O=C1Sc2cc3ccccc3cc2C(=O)Sc2cc3ccccc3cc21 | > 66.5 µM | > 100 µM | > 100 µM | 38.5 µM | 37.1 µM | > 100 µM | > 100 µM | > 83.7 µM | > 93.5 µM | 27.1 µM | – | – | – | – | – | – | – | – | – | – |
| Cc1ccc(C2(N3CCOCC3)OC(C)(C)c3cccc4cccc2c34)cc1 (centres undefined) | 30.5 µM | 57.2 µM | 39 µM | 36.9 µM | 31 µM | 30.7 µM | 33.6 µM | 28.7 µM | 36.9 µM | > 100 µM | – | – | – | – | – | – | – | – | – | – |
| CCC(C)C(NC(=O)C1CCCN1)C(=O)NC(C(=O)NCC(=O)NC(CC(N)=O)C(=O)NC(CC(C)C)C(=O)NC(CC(C)C)C(=O)NC(CCCCN)C(N)=O)C(C)C (centres undefined) (H-PIVGNLLK-NH2; configuration not given here) | > 75 µM | > 75 µM | > 75 µM | > 75 µM | > 75 µM | > 75 µM | > 75 µM | > 75 µM | > 75 µM | > 75 µM | – | – | – | – | – | – | – | – | – | – |
| Nc1cc2ncnc(Nc3cccc(Br)c3)c2cn1 | 69.7 µM | 63.9 µM | 8.18 µM | > 100 µM | > 100 µM | > 100 µM | 71.8 µM | > 100 µM | > 100 µM | > 100 µM | – | – | – | – | – | – | – | – | – | – |
| O=C1/C(=C(/Br)I)c2ccccc2-c2ccccc21 | 31.5 µM | 32 µM | 21.3 µM | 25.2 µM | 6.2 µM | 25.5 µM | 31.4 µM | 31.1 µM | 11.5 µM | 0.516 µM | – | – | – | – | – | – | – | – | – | – |
| CC(=O)NCC1OC2COC(c3ccccc3)OC2C2N=C(c3ccccc3)OC12 (centres undefined) | > 100 µM | > 100 µM | > 100 µM | > 100 µM | > 100 µM | > 100 µM | > 100 µM | > 100 µM | > 100 µM | 52.9 µM | – | – | – | – | – | – | – | – | – | – |
| CC(=O)CCCCCCCCCCCC[C@@H]1CC[C@H](C)[C@H](O)N1 | > 100 µM | > 100 µM | > 100 µM | > 100 µM | > 100 µM | > 100 µM | > 100 µM | > 100 µM | > 100 µM | > 100 µM | – | – | – | – | – | – | – | – | – | – |
| Cc1c2oc3c(C)ccc(C(=O)NC4C(=O)NC(Cc5ccc(O)cc5)C(=O)N5CCCC5C(=O)N(C)CC(=O)N(C)C(C(C)C)C(=O)OC4C)c3nc-2c(C(=O)NC2C(=O)NC(Cc3ccc(O)cc3)C(=O)N3CCCC3C(=O)N(C)CC(=O)N(C)C(C(C)C)C(=O)OC2C)c(N)c1=O (centres undefined) (I: TYP[Sar][NMeV] / II: TYP[Sar][NMeV]; ester I:1-I:C, II:1-II:C; linker I:N-II:N via Actinocin(9to1); configuration not given here) | > 43.6 µM | > 100 µM | > 80.3 µM | > 100 µM | > 61.4 µM | > 48.7 µM | > 54.6 µM | > 100 µM | 44.3 µM | > 76.2 µM | – | – | – | – | – | – | – | – | – | – |
| Cn1c(O)c(/C=N/c2ncccn2)c(=O)[nH]c1=O | > 100 µM | > 100 µM | > 100 µM | > 100 µM | > 100 µM | > 100 µM | > 100 µM | > 100 µM | > 100 µM | > 100 µM | – | – | – | – | – | – | – | – | – | – |
| COc1ccc(-c2cc(-c3ccc(OC)c(OC)c3)nc(SCCCC(=O)NO)n2)cc1 | 5.85 µM | > 100 µM | > 100 µM | 13.7 µM | 1.44 µM | 5.78 µM | 3.77 µM | 5.45 µM | 4.88 µM | 5.99 µM | 2.14 µM | 2.23 µM | 0.722 µM | 0.96 µM | 0.301 µM | 1.76 µM | 1.74 µM | 1.97 µM | 0.896 µM | 1.64 µM |
| O=[N+]([O-])c1cccc([N+](=O)[O-])c1Cl | 43.9 µM | 29.5 µM | 41.3 µM | > 100 µM | 2.86 µM | 25.8 µM | 34.8 µM | 46.5 µM | 34.7 µM | 24.2 µM | – | – | – | – | – | – | – | – | – | – |
| CCC1(O)CC(O)c2c(O)c3c(c(O)c2C1C(=O)OC)C(=O)c1cccc(O)c1C3=O (centres undefined) | 10.2 µM | 17.4 µM | 24.3 µM | 11.7 µM | 13.2 µM | 16.6 µM | 10.7 µM | 16.2 µM | 7.08 µM | 6.07 µM | – | – | – | – | – | – | – | – | – | – |
| C=C(C)C(=O)O[C@H]1CC2(CO)O[C@@H]2CC/C(COC(C)=O)=C/C2OC(=O)C(=C)[C@@H]21 (some centres undefined) | > 100 µM | > 100 µM | > 56.6 µM | 39.4 µM | 59.4 µM | > 100 µM | > 100 µM | > 100 µM | 62.2 µM | 29.6 µM | – | – | – | – | – | – | – | – | – | – |
| C#Cc1cccc(Nc2ncnc3cc(OCCOC)c(OCCOC)cc23)c1 | 50.6 µM | > 100 µM | 47.8 µM | > 100 µM | 74.5 µM | 99 µM | 67.6 µM | > 100 µM | 43 µM | > 100 µM | – | – | 0.196 µM | – | – | – | – | 14.6 µM | 1.85 µM | 20.6 µM |
| COc1ccc(/C=N/N=C(\N)NO)c(OC)c1OC | > 100 µM | 52.9 µM | > 100 µM | 75.5 µM | 91.9 µM | > 100 µM | > 100 µM | > 100 µM | > 100 µM | 45.8 µM | – | – | – | – | – | – | – | – | – | – |
| O=c1[nH]nc(N/N=C\c2ccc(Cl)cc2)c2ccccc12 | 37 µM | 52.3 µM | 54.4 µM | 53.2 µM | 38.7 µM | 38.2 µM | 34 µM | 55.5 µM | 45.4 µM | > 100 µM | – | – | – | – | – | – | – | – | – | – |
| O=c1n(C2CCCCC2)c(=C(Cl)Cl)c(=C(Cl)Cl)n1C1CCCCC1 | > 100 µM | > 100 µM | > 100 µM | > 100 µM | > 100 µM | > 100 µM | > 100 µM | > 100 µM | > 100 µM | > 100 µM | – | – | – | – | – | – | – | – | – | – |
| CCCCCCCCCCC[N+]1(Cc2ccccc2)CC2CCN(Cc3ccccc3)CC2C1 (centres undefined) | 0.724 µM | 0.902 µM | 2.57 µM | 1.45 µM | 2.56 µM | 1.11 µM | 2.28 µM | 2.13 µM | 1.26 µM | 0.277 µM | – | – | – | – | – | – | – | – | – | – |
| O=C1NC(=S)N/C1=C\c1ccc(Sc2ccccc2C(=O)O)s1 | > 100 µM | > 100 µM | > 100 µM | > 100 µM | > 100 µM | > 100 µM | > 100 µM | > 100 µM | > 100 µM | > 100 µM | – | – | – | – | – | – | – | – | – | – |
| CCOC(=O)c1c(SCCN2CCCCC2)n(-c2ccccc2)c(=S)n(-c2ccccc2)c1=O | > 100 µM | 35 µM | 31.9 µM | 4.89 µM | 33.9 µM | > 68.2 µM | > 100 µM | > 75.4 µM | 30.3 µM | > 33.8 µM | – | – | – | – | – | – | – | – | – | – |
| CCOC(=O)COC1=Nc2cc(OC)c(OC)c3nc(Cl)cc(c23)C1=O | 4.09 µM | 28.6 µM | 3.45 µM | 3.1 µM | 4.13 µM | 8.49 µM | 24 µM | 6.83 µM | 2.71 µM | 0.879 µM | – | – | – | – | – | – | – | – | – | – |
| C=C1CC(Cn2cc(Br)c(=O)[nH]c2=O)(c2ccc(Br)cc2)OC1=O (centres undefined) | 3.74 µM | > 38.7 µM | 23 µM | 2.75 µM | 27.1 µM | 28.8 µM | 31 µM | 41.3 µM | 4.7 µM | 2.74 µM | – | – | – | – | – | – | – | – | – | – |
| CN1CCCC(OC(=O)c2cc3cc(CCl)ccc3oc2=O)C1 (centres undefined) | 33.9 µM | 68.3 µM | 48.8 µM | 48.7 µM | 32.5 µM | 30.1 µM | 77.9 µM | 47 µM | 44.3 µM | 13.2 µM | – | – | – | – | – | – | – | – | – | – |
| CCOC(=O)c1nc2ccccc2nc1Nc1ccc(F)cc1 | > 83.4 µM | > 100 µM | > 100 µM | > 69.3 µM | > 100 µM | 70.6 µM | 28.9 µM | 30 µM | > 100 µM | > 100 µM | – | – | – | – | – | – | – | – | – | – |
| CN(c1ccc(Cl)cc1)S(=O)(=O)c1ccccc1 | > 100 µM | > 100 µM | > 100 µM | > 100 µM | > 100 µM | > 100 µM | > 100 µM | > 100 µM | > 100 µM | > 100 µM | – | – | – | – | – | – | – | – | – | – |
